Numbering of substitutions follows the chain as printed. Like-named read-outs stand apart in the source and are kept apart here.

This passage reports Dmax results from EP4772505A1, “COMPOUND FOR DEGRADING ANDROGEN RECEPTOR AND MEDICAL USE THEREOF” (Ubix Therapeutics, Inc., priority 2023, dated 2025).

Assay [1] has as its target T1, Androgen Receptor (AR) (Homo sapiens, UniProt P10275, T878A).
T1 construct: endogenous in cells; host or cells: LNCaP
T1 sequence (P10275 1-920 T878A): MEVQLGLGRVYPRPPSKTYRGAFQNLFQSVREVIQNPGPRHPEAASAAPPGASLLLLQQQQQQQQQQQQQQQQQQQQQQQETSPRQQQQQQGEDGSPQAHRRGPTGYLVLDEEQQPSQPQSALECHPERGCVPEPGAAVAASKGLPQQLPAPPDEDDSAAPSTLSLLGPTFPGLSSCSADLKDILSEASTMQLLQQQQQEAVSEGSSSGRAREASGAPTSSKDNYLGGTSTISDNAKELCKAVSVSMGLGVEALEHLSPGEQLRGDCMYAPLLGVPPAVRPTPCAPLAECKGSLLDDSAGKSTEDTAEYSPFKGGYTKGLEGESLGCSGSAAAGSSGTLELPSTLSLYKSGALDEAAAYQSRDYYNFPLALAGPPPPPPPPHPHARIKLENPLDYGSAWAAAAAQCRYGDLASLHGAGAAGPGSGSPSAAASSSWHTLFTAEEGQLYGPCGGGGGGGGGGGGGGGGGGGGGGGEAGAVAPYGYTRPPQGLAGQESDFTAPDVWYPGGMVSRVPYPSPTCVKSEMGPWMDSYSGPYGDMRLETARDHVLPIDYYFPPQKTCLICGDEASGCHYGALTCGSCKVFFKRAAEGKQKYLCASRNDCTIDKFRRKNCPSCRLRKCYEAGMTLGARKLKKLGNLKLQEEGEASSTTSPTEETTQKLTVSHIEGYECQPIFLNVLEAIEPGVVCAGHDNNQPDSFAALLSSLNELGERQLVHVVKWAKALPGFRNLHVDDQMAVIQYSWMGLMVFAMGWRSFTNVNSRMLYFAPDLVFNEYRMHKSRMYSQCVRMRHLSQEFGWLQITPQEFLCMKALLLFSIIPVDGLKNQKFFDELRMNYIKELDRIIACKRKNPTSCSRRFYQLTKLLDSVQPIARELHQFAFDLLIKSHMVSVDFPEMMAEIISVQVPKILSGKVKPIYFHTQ
As to the kind of experiment: Measurement of AR protein degradation in LNCaP cells by Western blotting. The format is cell-based. The note with it: read-out: AR degradation in LNCaP cells (%). Here is the method:
(§1) The amount of AR protein present in LNCaP or VCaP cells was measured after treating them with the synthesized compound. The amount of AR protein was measured using Western blotting. The protocol for the experiments using LNCaP or VCaP cells was as follows.
(§2) [Culture] LNCaP cells were resuspended in RPMI1640 medium + HEPES (Hyclone, SH30255.01), 10% FBS (Hyclone, SV30207.02), and 1% Penicillin-streptomycin (Welgene, LS 202-02). 3 x 10^5 cells/mL were seeded in 12-well plates (1 mL per well) and cultured for 3 days. VCaP cells were resuspended in IMDM MEDIUM (Hyclone, SH30228.01), 20% FBS (Hyclone, SV30207.02), and 1% Penicillin-streptomycin (Welgene, LS 202-02), seeded at 9 x 10^5/mL in 1 mL per 12-well plate, and cultured for 3 days.
(§3) [Compound Treatment] 10 µL of 100x stock (e.g., 0.1, 1, 10 µM) compound solution at the final compound treatment concentration (e.g., 0.001, 0.01, 0.1 µM) was added to each well in 1 mL media, and cells were harvested after 20 hours. For DC50 measurement, 100x stock (0.01, 0.1, 1, 10, 100, 1000 µM) compound solutions at the final compound treatment concentration (0.0001, 0.001, 0.01, 0.1, 1, 10 µM) were used.
(§4) [Cell lysis] The cell pellet was suspended using 1% SDS lysis buffer (50 mM Tris, 1 mM EDTA, 1% SDS, pH 8.0, 0.5 mM PMSF, 1x Protease/Phosphatase inhibitor Cocktail (Cell Signaling Technology, 5872S)), and sonication (70% AMP, 10 cycles (30 sec ON/59 sec OFF)) was performed. After centrifugation at 4°C and 20,000 g for 20 minutes, the cell lysate was obtained and transferred to a new tube.
(§5) [Protein Quantification] A BCA protein assay (SMART™ BCA Protein Assay Kit, iNtRON Biotechnology, 21071) was performed using a 96-well microplate. 5 µL of cell lysate and 5 µL of 1% SDS lysis buffer were added to each well of the 96-well plate, followed by an additional 200 µL of BCA reagent (Reagent A: Reagent B = 50:1). The wells were incubated at 37°C for 30 minutes and cooled to room temperature for 10 minutes. After shaking for 10 seconds, the absorbance was measured at a wavelength of 562 nm. The unknown protein concentration was determined using a BSA standard curve (0, 0.125, 0.25, 0.5, 1, 2 mg/mL). Western blotting samples were prepared by mixing cell lysate, 1% SDS lysis buffer, 4x NuPAGE™ LDS Sample buffer (Invitrogen, NP0008), and 10X NuPAGE™ Sample Reducing Agent (Invitrogen, NP0009) and boiling at 70°C for 10 minutes.
(§6) [Electrophoresis] 10 µg of protein sample was loaded into each well of a NuPAGE™ 4 to 12%, Bis-Tris, 1.0 mm Mini Protein Gel, 15-well, 17-well, or 26-well (Invitrogen, NP0323BOX, NP0329BOX, or WG1403BOX) and electrophoresed for 40 minutes using NuPAGE™MES SDS Running Buffer (Invitrogen, NP0002) at 200 V (constant V).
(§7) [Transfer] Transfer was performed for 15 or 18 minutes using the electrophoresed gel and the Trans-Blot® Turbo™ Transfer Starter System (Bio-RAD, #17001918, Mini Nitrocellulose) at 1.3 A (constant A) and 25 V (limit V). To confirm protein transfer, 15 mL of Ponceau S solution (Sigma, P7170-1L) was used to stain for 1 minute, and then washed to check the degree of transfer.
(§8) [Blocking] The membrane for AR and GAPDH detection was blocked with 5% skim milk/0.2% TBST (Skim milk: BD, 232100/ 20X TBS: Biosesang, TR2008-100-00/ 10% Tween 20 Solution: Bio-RAD, #161-0781) for 45 minutes.
(§9) [Antibodies and Detection] Primary AR antibody (Androgen Receptor: CST, 5153S) was mixed with 5% skim milk/0.2% TBST at a ratio of 1:1,000 and reacted at room temperature for 3 hours or at 4°C overnight. Primary GAPDH antibody (CST, 2118S) was mixed with 5% skim milk/0.2% TBST at a ratio of 1:2,000 and reacted at room temperature for 3 hours or at 4°C overnight. Afterwards, TBST (0.2% Tween 20) was used for washing three times every 5 minutes. Secondary antibody to AR antibody, Anti-rabbit IgG, HRP-linked Antibody (CST, 7074S), was mixed with 5% skim milk/0.2% TBST at a ratio of 1:5,000 and reacted at room temperature for 45 minutes. […]

In assay [2] the target is T2, Androgen Receptor (AR) (Homo sapiens, UniProt P10275).
T2 sequence (P10275 1-920): T1 sequence (P10275 1-920 T878A) with A878T
As to the kind of experiment: Measurement of AR protein degradation in VCaP cells by Western blotting. The settings on record: VCaP, 20 h, read-out: AR degradation in VCaP cells (%). More on the design: endogenous in cells; host or cells: VCaP. The format is cell-based. As for the experimental part: as §1, §2, §3, §4, §5, §6, §7, §8, §9
A general note: In western blotting, separated proteins are transferred to a membrane and probed.

Turning to `N#Cc1ccc(N2CCC(C(=O)Nc3ccc(OC4CCN(CC5CCN(c6ccc(NC7CCC(=O)NC7=O)cc6C(F)(F)F)CC5)CC4)cn3)CC2)cc1C(F)(F)F` (stereo not drawn) [Example 18, 1-(4-cyano-3-(trifluoromethyl)phenyl)-N-(5-((1-((1-(4-((2,6-dioxopiperidin-3-yl)amino)-2-(trifluoromethyl)phenyl)piperidin-4-yl)methyl)piperidin-4-yl)oxy)pyridin-2-yl)piperidine-4-carboxamide], on Androgen Receptor (AR) [1] (LNCaP, 20 h), the Dmax at 0.01 µM was 51% and the Dmax at 0.1 µM was 98%.
As to `N#Cc1ccc(N2CCC(C(=O)Nc3ccc(OC4CCN(C5CCN(c6ccc(NC7CCC(=O)NC7=O)cc6F)CC5)CC4)cn3)CC2)cc1C(F)(F)F` (stereo not drawn) [Example 4, 1-(4-cyano-3-(trifluoromethyl)phenyl)-N-(5-((1'-(4-((2,6-dioxopiperidin-3-yl)amino)-2-fluorophenyl)-[1,4'-bipiperidin]-4-yl)oxy)pyridin-2-yl)piperidine-4-carboxamide], at Androgen Receptor (AR) [1] (LNCaP, 20 h), the Dmax at 0.01 µM amounted to 76% and the Dmax at 0.1 µM was 93%.
The corresponding values for `N#Cc1ccc(N2CCN(C(=O)Nc3ccc(OC4CCN(CC5CCN(c6ccc(NC7CCC(=O)NC7=O)cc6F)CC5)CC4)cn3)CC2)cc1C(F)(F)F` (stereo not drawn) [Example 6, 4-(4-cyano-3-(trifluoromethyl)phenyl)-N-(5-((1-((1-(4-((2,6-dioxopiperidin-3-yl)amino)-2-fluorophenyl)piperidin-4-yl)methyl)piperidin-4-yl)oxy)pyridin-2-yl)piperazine-1-carboxamide] are 84% and 99%.
Consider `N#Cc1ncc(N2CCC(C(=O)Nc3ccc(OC4CCN(CC5CCN(c6ccc(NC7CCC(=O)NC7=O)cc6F)CC5)CC4)cn3)CC2)cc1C(F)(F)F` (stereo not drawn) [Example 5, 1-(6-cyano-5-(trifluoromethyl)pyridin-3-yl)-N-(5-((1-((1-(4-((2,6-dioxopiperidin-3-yl)amino)-2-fluorophenyl)piperidin-4-yl)methyl)piperidin-4-yl)oxy)pyridin-2-yl)piperidine-4-carboxamide], for which, at Androgen Receptor (AR) [1] (10 nM compound, 20 hours, LNCaP cells), the Dmax at 0.01 µM stood at 63%. In addition, the Dmax at 0.1 µM at Androgen Receptor (AR) [1] (100 nM compound, 20 hours, LNCaP cells) is 97%.
As to `N#Cc1ccc(N2CCC(C(=O)Nc3ccc(OC4CCN(CC5CCN(c6ccc(NC7CCC(=O)NC7=O)cc6F)CC5)CC4)nn3)CC2)c(F)c1C(F)(F)F` (stereo not drawn) [Example 14, 1-(4-cyano-2-fluoro-3-(trifluoromethyl)phenyl)-N-(6-((1-((1-(4-((2,6-dioxopiperidin-3-yl)amino)-2-fluorophenyl)piperidin-4-yl)methyl)piperidin-4-yl)oxy)pyridazin-3-yl)piperidine-4-carboxamide], at Androgen Receptor (AR) [2], the Dmax at 0.01 µM is 87% and the Dmax at 0.1 µM stood at 95%.
On to `N#Cc1ccc(N2CCC(C(=O)Nc3ccc(OC4CCN(CC5CCN(c6ccc(NC7CCC(=O)NC7=O)cc6F)CC5)CC4)cn3)CC2)c(F)c1C(F)(F)F` (stereo not drawn) [Example 11, 1-(4-cyano-2-fluoro-3-(trifluoromethyl)phenyl)-N-(5-((1-((1-(4-((2,6-dioxopiperidin-3-yl)amino)-2-fluorophenyl)piperidin-4-yl)methyl)piperidin-4-yl)oxy)pyridin-2-yl)piperidine-4-carboxamide], for which, on Androgen Receptor (AR) [2], the Dmax at 0.01 µM amounted to 89% and the Dmax at 0.1 µM worked out at 99%.
